These results are taken from US20220274967A1, “BCAT MODULATION” (Icagen, LLC, priority 2019, published 2022).

In one assay the target is T1, BCAT2 (Homo sapiens, UniProt O15382).
T1 sequence (O15382 28-392): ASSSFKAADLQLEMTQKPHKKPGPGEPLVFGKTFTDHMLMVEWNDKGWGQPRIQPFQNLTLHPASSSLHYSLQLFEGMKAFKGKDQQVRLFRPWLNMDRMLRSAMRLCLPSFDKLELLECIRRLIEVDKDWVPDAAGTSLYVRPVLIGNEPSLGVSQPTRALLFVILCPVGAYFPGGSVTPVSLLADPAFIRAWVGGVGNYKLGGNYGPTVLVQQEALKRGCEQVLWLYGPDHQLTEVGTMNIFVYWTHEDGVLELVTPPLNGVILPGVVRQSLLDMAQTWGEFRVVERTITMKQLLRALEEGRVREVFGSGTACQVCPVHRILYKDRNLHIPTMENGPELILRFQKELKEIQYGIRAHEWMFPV
Nature of the assay: BCAT2 enzyme inhibition (human). Type of assay: biochemical. The procedure, abridged:
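Cell-free coupled fluorescent assay: human BCATm converts branched-chain amino acids and α-ketoglutarate to L-glutamate, which L-glutamate oxidase and HRP link to resorufin formation from Amplex Red; activity taken as reduced glutamate signal.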

In another assay the test system is GM00371 cells. The assay can be described thus: Viability assay (Cell titer glo) in the 3-HIB assay. Type of assay: cell-based, human. The conditions noted are these: Homo sapiens, 24 h, read-out: 3HIB INHIBITION IC50 (μM) MEAN GM00371 cells Viablility Assay. The method in brief: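 GM00371 cells (10,000/well, EMEM/15% FBS) were exposed for 24 h at 37 °C to compounds in 1:3 serial dilution from 30 μM top concentration in EMEM. Reference Compound B at 30 μM served as maximal-toxicity control. Viability read as CellTiter-Glo luminescence.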
Background: In ATP-based viability assays light output follows the ATP content of the culture.

Assay [1] in a line: 3-HIB assay in vitro, direct MS assay of conditioned media. The conditions noted are these: Homo sapiens, 24 h, GM00371 cells, read-out: 3HIB INHIBITION IC50 (μM) MEAN GM00371 cells Direct MS Assay. Type of assay: cell-based, human. As to the method: Cell Plating: Cells (Coriell Institute GM00371 cells) were plated (96-well clear bottom sterile plate; Greiner 655098) at 10,000 cells/0.1 mL in Eagle's minimum essential medium (EMEM)/15% FBS (Gibco 16000-044) with a Combi dispenser in a cell culture hood and incubated at 37° C. and 5% CO2 overnight.
Compound Dilution: Compound were prepared as 33.3× intermediate dilution in DMSO in 96 well round polystyrene plates. For 30 μM final maximum start with 30 μL of 10 mM in DMSO. 10-12 1:3 serial dilutions were prepared from left to right (20 μL+40 μL DMSO). A 10× secondary dilution was prepare in EMEM by taking 7.5 μL 33.3× and transfer to replicate 96 well round polystyrene plates and then adding 242.5 μL EMEM A 1× final dilution in EMEM was prepared by taking 50 μL 10× dilution and transferring to replicate 96 well polypropylene assay block (Costar 3956) and adding 450 μL EMEM A control was prepared for maximal compound inhibition by taking 20 μL 10 mM Reference Compound A and adding 40 μL DMSO for a concentration of 3.3 mM To 7.5 μL of the 3.3 mM Reference Compound A solution and added 242.5 μL EMEM to make a 100 μM solution. The subsequent Reference Compound A solution was diluted with EMEM to achieve a final concentration of 10 μM. The structure of Reference Compound A is:
A control was prepared for maximal compound toxicity by taking 7.5 μL Reference Compound B and 242.5 μL EMEM to make […]. 50 μL of that 100 μM Reference Compound B solution was combined with 450 μL EMEM to achieve a concentration of 30 μM. The structure of Reference Compound B is
A DMSO Control was prepared by dilution 7.5 μL with 242.5 μL EMEM and taking 50 μL of the subsequent solution and diluting with 450 μL EMEM.
Compound Treatment: Media was aspirated from the cells and 100 μL of D-PBS (ThermoFisher 14190144) was added and then removed. 100 μL of diluted compound was added to the cells in the place and the cells were incubated at 37° C. and 5% CO2 for 24 hours.
Collection of Conditioned Media: For 3HIB MS detection: 20 μL conditioned media was removed from the cells and was transferred to a labeled replicate 96 well polypropylene assay plate (VWR 62408-946). And the plate was heat sealed and stored at −80° C.
3HIB Derivatization (Generalized SOP): The media collected for 3HIB MS detection was derivatized under the following conditions. Buffer: 0.1M 1-Ethyl-3-(3-dimethylaminopropyl)carbodiimide (EDC) dissolved in 0.1 M 2-(N-morpholino)ethanesulfonic acid ([…]) adjusted to pH 5.6. Buffer prep: weighed 10.6 g MES (Sigma #M-5287) per 500 mL HPLC grade H2O. Stored at 4° C.; 0.1M EDC: Weighed 1.971 g EDC (#E-1769) per 100 mL MES. Adjusted pH to 5.6 with ˜40 drops of 1N NaOH and stored at 4° C. Buffer has a short half-life should be used within two weeks.
Derivatization: To 20 μL sample was added 60 μL 5 uM 3HIB-4C13 internal standard followed by 20 μL EDC in MES and 100 μL MES. The plate was sealed and incubate at 50° C. for […] then centrifuged at 4000 rpm at 6° C. for 10 minutes. LC-MS analysis was then conducted and the data was processed using standard methods.

Structures are written as SMILES.

A word on the IC50: it is the concentration needed to halve the response being measured.

As for `CNC(=O)c1ccc2c(c1)nc(-c1c(O)cccc1F)n2[C@H]1CCC[C@@H](NC(=O)c2ccc(Cl)s2)C1` [Compound 177], the IC50 against BCAT2 is < 100 nM; in the assay on GM00371 cells it was 0.1 to 0.5 µM; in assay [1] it was < 0.1 µM.

Turning to `CNC(=O)c1ccc2c(c1)nc(-c1ccccc1SC(F)(F)F)n2[C@H]1CCC[C@@H](NC(=O)c2ccc(C#N)s2)C1` [Compound 127], the concentration for half-maximal inhibition (IC50) at BCAT2 was 500 to 1000 nM; in the assay with GM00371 cells, ≥ 1 µM; in assay [1], ≥ 1 µM.

With `CNC(=O)c1ccc2c(c1)nc(-c1cc(F)ccc1F)n2[C@H]1CCC[C@@H](NC(=O)c2ccc(Br)s2)C1` [Compound 175], the IC50 was < 100 nM against BCAT2, 0.1 to 0.5 µM in the assay with GM00371 cells and < 0.1 µM in assay [1].

For the molecule `CNC(=O)c1ccc2c(c1)nc(-c1ncccc1C#N)n2[C@H]1CCC[C@@H](NC(=O)c2ccc(Cl)s2)C1` [Compound 192], the half-inhibitory concentration (IC50) on BCAT2 is < 100 nM; in the assay on GM00371 cells it was 0.5 to 1 µM; in assay [1] it was 0.5 to 1 µM.

`CNC(=O)c1ccc2c(c1)nc(-c1ccccn1)n2[C@@H]1CCC[C@H](NC(=O)c2cccc(Br)c2)C1` [Compound 116]: the values for the IC50 (at BCAT2; in the assay on GM00371 cells; in assay [1]) were > 1000 nM, ≥ 1 µM and ≥ 1 µM, respectively.

In the case of `N#Cc1ccc(C(=O)N[C@@H]2CCC[C@H](n3c(-c4ccccn4)nc4cc(CO)ccc43)C2)s1` [Compound 133], the values for the IC50 (against BCAT2; in the assay with GM00371 cells; in assay [1]) were 100 to 500 nM, ≥ 1 µM and ≥ 1 µM, respectively.

For `CNC(=O)c1ccc2c(c1)nc(-c1ccccn1)n2[C@H]1CC[C@@H](NC(=O)c2ccc(C#N)s2)C1` [Compound 131], the IC50 against BCAT2 is 500 to 1000 nM; with GM00371 cells, ≥ 1 µM; in assay [1], ≥ 1 µM.

On to `CNC(=O)c1ccc2c(c1)nc(-c1c(F)cccc1F)n2[C@H]1CCC[C@@H](NC(=O)c2ccc(C#N)s2)C1` [Compound 174], for which the IC50 against BCAT2 was < 100 nM; in the assay with GM00371 cells, 0.5 to 1 µM; in assay [1] it was 0.1 to 0.5 µM.

For the molecule `CNC(=O)c1ccc2c(c1)nc(-c1ncccc1C#N)n2[C@H]1CCC[C@@H](NC(=O)c2ccc(Br)s2)C1` [Compound 185], the values for the half-inhibitory concentration (IC50) (against BCAT2; with GM00371 cells; in assay [1]) were < 100 nM, 0.5 to 1 µM and 0.5 to 1 µM, respectively.

Regarding `CNC(=O)c1ccc2c(c1)nc(-c1ccccc1OC)n2[C@H]1CCC[C@@H](NC(=O)c2ccc(C#N)s2)C1` [Compound 124], the figures for the IC50 (against BCAT2; in the assay with GM00371 cells; in assay [1]) were < 100 nM, ≥ 1 µM and ≥ 1 µM, respectively.

As for `CNC(=O)c1ccc2c(c1)nc(-c1ccccn1)n2[C@H]1CCC[C@@H](NC(=O)c2ccc(Cl)s2)C1` [Compound 141], the 50% inhibitory concentration (IC50) was < 100 nM at BCAT2, ≥ 1 µM in the assay with GM00371 cells and ≥ 1 µM in assay [1].

As for `CNC(=O)c1ccc2c(c1)nc(-c1c(O)cccc1F)n2[C@H]1CCC[C@@H](NC(=O)c2ccc(C#N)s2)C1` [Compound 172], the IC50 against BCAT2 was < 100 nM; in the assay on GM00371 cells, 0.1 to 0.5 µM; in assay [1] it was 0.1 to 0.5 µM.

As to `CNC(=O)c1ccc2c(c1)nc(-c1ccccn1)n2[C@@H]1CCC[C@H](NC(=O)c2ccc([N+](=O)[O-])s2)C1` [Compound 107], the IC50 on BCAT2 is 500 to 1000 nM; in the assay with GM00371 cells, ≥ 1 µM; in assay [1], ≥ 1 µM.

As to `CNC(=O)c1ccc2c(c1)nc(-c1ncccc1C#N)n2[C@H]1CCC[C@@H](NC(=O)c2ccc(C#N)s2)C1` [Compound 178], the IC50 is < 100 nM on BCAT2, ≥ 1 µM with GM00371 cells and ≥ 1 µM in assay [1].

Regarding `CNC(=O)c1ccc2c(c1)nc(-c1cccs1)n2[C@H]1CCC[C@@H](NC(=O)c2ccc(C#N)s2)C1` [Compound 181], the IC50 on BCAT2 was < 100 nM; with GM00371 cells it was ≥ 1 µM; in assay [1], ≥ 1 µM.

Consider `CNC(=O)c1ccc2c(c1)nc(-c1cccs1)n2[C@H]1CCC[C@@H](NC(=O)c2ccc(Cl)s2)C1` [Compound 189], for which the half-inhibitory concentration (IC50) was < 100 nM on BCAT2 and 0.1 to 0.5 µM in assay [1].

Take `CNC(=O)c1ccc2c(c1)nc(-c1ccccc1SC(F)(F)F)n2[C@H]1CCC[C@@H](NC(=O)c2ccc(Br)s2)C1` [Compound 128]: the IC50 is 500 to 1000 nM against BCAT2, ≥ 1 µM in the assay with GM00371 cells and ≥ 1 µM in assay [1].

On to `CNC(=O)c1ccc2c(c1)nc(-c1ccccc1OC)n2[C@H]1CCC[C@@H](NC(=O)c2ccc(Br)s2)C1` [Compound 126], for which the IC50 at BCAT2 is < 100 nM; in the assay with GM00371 cells it was ≥ 1 µM; in assay [1] it was 0.1 to 0.5 µM.

With `O=C(N[C@@H]1CCC[C@H](n2c(-c3ccccn3)nc3cc(Cl)ncc32)C1)c1ccc(Br)s1` [Compound 296], the IC50 against BCAT2 was < 100 nM; with GM00371 cells, 0.5 to 1 µM; in assay [1] it was 0.1 to 0.5 µM.

Regarding `O=C(N[C@H]1CCC[C@@H](n2c(-c3ccccn3)nc3cc(C(F)(F)F)ccc32)C1)c1ccc(Br)s1` [Compound 140], the results for the half-inhibitory concentration (IC50) (on BCAT2; in the assay on GM00371 cells; in assay [1]) were 100 to 500 nM, 0.5 to 1 µM and 0.5 to 1 µM, respectively.

`CNC(=O)c1ccc2c(c1)nc(-c1ccccc1NC(C)=O)n2[C@H]1CCC[C@@H](NC(=O)c2ccc(Br)s2)C1` [Compound 129]: the IC50 was 100 to 500 nM on BCAT2, ≥ 1 µM with GM00371 cells and ≥ 1 µM in assay [1].

Turning to `CNC(=O)c1ccc2c(c1)nc(-c1ccccn1)n2[C@@H]1CCC[C@H](NC(=O)c2ccc(C(F)(F)F)s2)C1` [Compound 113], the results for the IC50 (against BCAT2; in the assay with GM00371 cells; in assay [1]) were < 100 nM, 0.5 to 1 µM and ≥ 1 µM, respectively.

Regarding `CNC(=O)c1ccc2c(c1)nc(-c1ncccc1O)n2[C@H]1CCC[C@@H](NC(=O)c2ccc(Br)s2)C1` [Compound 152], the values for the half-inhibitory concentration (IC50) (against BCAT2; with GM00371 cells; in assay [1]) were < 100 nM, 0.1 to 0.5 µM and 0.1 to 0.5 µM, respectively.

Take `CNC(=O)c1ccc2c(c1)nc(-c1ccc(F)cc1F)n2[C@H]1CCC[C@@H](NC(=O)c2ccc(Br)s2)C1` [Compound 176]: the 50% inhibitory concentration (IC50) was < 100 nM against BCAT2, 0.1 to 0.5 µM in the assay on GM00371 cells and 0.1 to 0.5 µM in assay [1].
